Columns and labels:
Test in all cases: Cell panel screen (CellTiter-Glo)
Format in all cases: cell-based, human
[1] = tested on: A498; settings: A498 (listed under Lung), 20 micromolar, 72 hrs
In short: (§1)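 Growth inhibition (%) was determined from luminescence proportional to cellular ATP after cells had been incubated with compound (20 μM final) for 72 h at 37°C, with matched DMSO controls and cell-free wells defining the range.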

[2] = tested on: A704; settings: A704 (Kidney), 20 micromolar, 72 hrs
In short: as §1

[3] = tested on: BT-474; settings: BT-474 (Breast), 20 micromolar, 72 hrs
In short: as §1

[4] = tested on: BT-549; settings: BT-549 (Breast), 20 micromolar, 72 hrs
In short: as §1

[5] = tested on: Bel-7402; settings: Bel-7402 (Liver), 20 micromolar, 72 hrs
In short: as §1

[6] = tested on: C3A; settings: C3A (Liver), 20 micromolar, 72 hrs
In short: as §1

[7] = tested on: C8166; settings: C8166 (Leukemia), 20 micromolar, 72 hrs
In short: as §1

[8] = tested on: CCF-STTG1; settings: CCF-STTG1 (Brain), 20 micromolar, 72 hrs
In short: as §1

[9] = tested on: CW-2; settings: CW-2 (Colon), 20 micromolar, 72 hrs
In short: as §1

[10] = tested on: ChaGo-K-1; settings: ChaGo-K-1 (Lung), 20 micromolar, 72 hrs
In short: as §1

[11] = tested on: Colo 205; settings: Colo 205, 20 micromolar, 72 hrs
In short: as §1

[12] = tested on: HCC1395; settings: HCC1395 (Breast), 20 micromolar, 72 hrs
In short: as §1

[13] = tested on: HCC1569; settings: HCC1569 (Breast), 20 micromolar, 72 hrs
In short: as §1

[14] = tested on: HCC1599; settings: HCC1599 (Breast), 20 micromolar, 72 hrs
In short: as §1

[15] = tested on: HCC1937; settings: HCC1937 (Breast), 20 micromolar, 72 hrs
In short: as §1

[16] = tested on: HEC-1-A; settings: HEC-1-A (Uterus), 20 micromolar, 72 hrs
In short: as §1

[17] = tested on: HGC-27; settings: HGC-27 (Stomach), 20 micromolar, 72 hrs
In short: as §1

[18] = tested on: HPAF-II; settings: HPAF-II (Pancreas), 20 micromolar, 72 hrs
In short: as §1

[19] = tested on: HT-1197; settings: HT-1197 (Urinary bladder), 20 micromolar, 72 hrs
In short: as §1

[20] = tested on: J82; settings: J82 (Urinary bladder), 20 micromolar, 72 hrs
In short: as §1

[21] = tested on: M059J; settings: M059J (Brain), 20 micromolar, 72 hrs
In short: as §1

[22] = tested on: MSTO-211-H; settings: MSTO-211-H (Lung), 20 micromolar, 72 hrs
In short: as §1

[23] = tested on: NCI-H1623; settings: NCI-H1623 (Lung), 20 micromolar, 72 hrs
In short: as §1

[24] = tested on: NCI-H1694; settings: NCI-H1694 (Lung), 20 micromolar, 72 hrs
In short: as §1

[25] = tested on: NCI-H1770; settings: NCI-H1770 (Lung), 20 micromolar, 72 hrs
In short: as §1

[26] = tested on: NCI-H2347; settings: NCI-H2347 (Lung), 20 micromolar, 72 hrs
In short: as §1

[27] = tested on: NCI-H2405; settings: NCI-H2405 (Lung), 20 micromolar, 72 hrs
In short: as §1

[28] = tested on: NCI-H28; settings: NCI-H28 (Lung), 20 micromolar, 72 hrs
In short: as §1

[29] = tested on: NCI-H524; settings: NCI-H524 (Lung), 20 micromolar, 72 hrs
In short: as §1

[30] = tested on: Panc 03.27; settings: Panc 03.27 (Pancreas), 20 micromolar, 72 hrs
In short: as §1

[31] = tested on: RL95; settings: RL95 (Uterus), 20 micromolar, 72 hrs
In short: as §1

[32] = tested on: SW13; settings: SW13 (Adrenal gland), 20 micromolar, 72 hrs
In short: as §1

[33] = tested on: T47D; settings: T47D (Breast), 20 micromolar, 72 hrs
In short: as §1

[34] = tested on: T98G; settings: T98G (Brain), 20 micromolar, 72 hrs
In short: as §1

[35] = tested on: TCCSUP; settings: TCCSUP (Urinary bladder), 20 micromolar, 72 hrs
In short: as §1

[36] = tested on: ZR-75-30; settings: ZR-75-30 (Breast), 20 micromolar, 72 hrs
In short: as §1

[37] = Homo sapiens, read-out: Percent Inhibition

CC(C)=CCc1c(O)cc2oc3c(CC=C(C)C)c(O)c(O)c(CC=C(C)C)c3c(=O)c2c1O [bn-1, Garcinone E]
inhibition at 20 µM [1, 37]: 98%
inhibition at 20 µM [2, 37]: 98%
inhibition at 20 µM [3, 37]: 87%
inhibition at 20 µM [4, 37]: 98%
inhibition at 20 µM [5, 37]: 98%
inhibition at 20 µM [6, 37]: 90%
inhibition at 20 µM [7, 37]: 99%
inhibition at 20 µM [8, 37]: 89%
inhibition at 20 µM [9, 37]: 99%
inhibition at 20 µM [10, 37]: 99%
inhibition at 20 µM [11, 37]: 98%
inhibition at 20 µM [12, 37]: 100%
inhibition at 20 µM [13, 37]: 96%
inhibition at 20 µM [14, 37]: 98%
inhibition at 20 µM [15, 37]: 97%
inhibition at 20 µM [16, 37]: 87%
inhibition at 20 µM [17, 37]: 99%
inhibition at 20 µM [18, 37]: 90%
inhibition at 20 µM ([19]; Homo sapiens, HT1197, read-out: Percent Inhibition): 97%
inhibition at 20 µM [20, 37]: 98%
inhibition at 20 µM [21, 37]: 95%
inhibition at 20 µM [22, 37]: 98%
inhibition at 20 µM [23, 37]: 91%
inhibition at 20 µM [24, 37]: 100%
inhibition at 20 µM [25, 37]: 93%
inhibition at 20 µM [26, 37]: 79%
inhibition at 20 µM [27, 37]: 93%
inhibition at 20 µM [28, 37]: 95%
inhibition at 20 µM [29, 37]: 100%
inhibition at 20 µM ([30]; Homo sapiens, PANC-03-27, read-out: Percent Inhibition): 90%
inhibition at 20 µM [31, 37]: 99%
inhibition at 20 µM [32, 37]: 97%
inhibition at 20 µM [33, 37]: 82%
inhibition at 20 µM [34, 37]: 100%
inhibition at 20 µM ([35]; Homo sapiens, TCC-SUP, read-out: Percent Inhibition): 97%
inhibition at 20 µM [36, 37]: 99%

CC(C)=CCc1c(O)cc2oc3cc(O)c(O)c(CC=C(C)C)c3c(=O)c2c1O [Ge9]
Percent Inhibition [1]: 98%
Percent Inhibition [2]: 96%
Percent Inhibition [3]: 97%
Percent Inhibition [4]: 97%
Percent Inhibition [5]: 99%
Percent Inhibition [6]: 81%
Percent Inhibition [7]: 99%
Percent Inhibition [8]: 99%
Percent Inhibition [9]: 99%
Percent Inhibition [10]: 97%
Percent Inhibition [11]: 98%
Percent Inhibition [12]: 98%
Percent Inhibition [13]: 97%
Percent Inhibition [14]: 95%
Percent Inhibition [15]: 98%
Percent Inhibition [16]: 95%
Percent Inhibition [17]: 97%
Percent Inhibition [18]: 96%
Percent Inhibition [19]: 97%
Percent Inhibition [20]: 97%
Percent Inhibition [21]: -17%
Percent Inhibition [22]: 98%
Percent Inhibition [23]: 91%
Percent Inhibition [24]: 99%
Percent Inhibition [25]: 98%
Percent Inhibition [26]: 89%
Percent Inhibition [27]: 96%
Percent Inhibition [28]: 97%
Percent Inhibition [29]: 97%
Percent Inhibition [30]: 97%
Percent Inhibition [31]: 98%
Percent Inhibition [32]: -3%
Percent Inhibition [33]: 94%
Percent Inhibition [34]: 98%
Percent Inhibition [35]: 99%
Percent Inhibition [36]: 99%

COc1c(CC=C(C)C)cc2c(=O)c3c(O)cc(O)cc3oc2c1O [gl-16]
Percent Inhibition [1]: 34%
Percent Inhibition [2]: 9%
Percent Inhibition [3]: 16%
Percent Inhibition [4]: 27%
Percent Inhibition [5]: 17%
Percent Inhibition [6]: 45%
Percent Inhibition [7]: 77%
Percent Inhibition [8]: 25%
Percent Inhibition [9]: 55%
Percent Inhibition [10]: 57%
Percent Inhibition [11]: 57%
Percent Inhibition [12]: 69%
Percent Inhibition [13]: 50%
Percent Inhibition [14]: 67%
Percent Inhibition [15]: 50%
Percent Inhibition [16]: 46%
Percent Inhibition [17]: 58%
Percent Inhibition [18]: 26%
Percent Inhibition [19]: 37%
Percent Inhibition [20]: 50%
Percent Inhibition [21]: 33%
Percent Inhibition [22]: 61%
Percent Inhibition [23]: 18%
Percent Inhibition [24]: 55%
Percent Inhibition [25]: 21%
Percent Inhibition [26]: 42%
Percent Inhibition [27]: 12%
Percent Inhibition [28]: 41%
Percent Inhibition [29]: 56%
Percent Inhibition [30]: 47%
Percent Inhibition [31]: 45%
Percent Inhibition [32]: 41%
Percent Inhibition [33]: 36%
Percent Inhibition [34]: 28%
Percent Inhibition [35]: 63%
Percent Inhibition [36]: 93%

— paper PMC4450297, “Screening Active Compounds from Garcinia Species Native to China Reveals Novel Compounds Targeting the STAT/JAK Signaling Pathway” (BioMed Research International, 2015)
